The results in this text go back to patent EP0411495A2, “Ergoline derivatives of proline and related compounds having dopaminergic activity” (priority 1989, dated 1991).

Data set [1] concerns mouse. Briefly: Locomotor activity in the mouse. Format: in vivo.
Data set [2] deals with spontaneously hypertensive rats (SHR). Briefly: Antihypertensive activity on spontaneously hypertensive rats (SHR). The format is in vivo, rat. Particulars: for Mean arterial pressure % reduction: SHR; for hypotensive activity: result in words.
In another data set the test system is isolated rat uterus. An excerpt: All the compounds of the invention have a marked antiserotonin activity in the in vitro test on isolated rat uterus.
A further data set concerns reserpinized rat. Nature of the data set: Antihyperprolactinemic activity in the reserpinized rat. The format is in vivo. The settings on record: for Plasmatic prolactin % reduction: reserpinized rat; for antihyperprolactinemic activity: result in words. An excerpt:
All compounds (I) have a marked antihyperprolactinemic activity in the reserpinized rat.

The next data set relates to guinea pig platelet. Briefly: In vitro guinea pig platelet aggregation induced by ADP. The settings on record: guinea pig platelets. The format is cell-based. An excerpt: Moreover, compounds (I) have an effective antiag gregating activity on the in vitro guinea pig platelet aggregation induced by ADP.
For another data set, the system named is rat. Briefly: Stereotypy test in the rat. The format is in vivo. The settings on record: for Mean score: stereotypy, rat; for activity on C.N.S.: result in words.
The subject of the next data set is rat seminal vesicle. Briefly: Adrenolytic activity, in vitro rat seminal vesicle test. An excerpt: Most of the compounds of formula (I) have a marked adrenolytic activity in the in vitro rat seminal vesicle test.
The subject of data set [3] is mouse. Briefly: Acute toxicity by the oral route in the mouse. Format: in vivo.
[4] abbreviates: antiserotonin activity, in vitro isolated rat uterus.
Setting [5] is: After 1 hour (dose 0.25 mg/kg os).
Where [6] appears, read: After 2 hours (dose 0.50 mg/kg os).

Molecules are shown by their SMILES. Read-outs that look alike come from different tables or passages of the source.

As for `CC(C)C[C@H]1C(=O)N2CCC[C@H]2[C@]2(O)O[C@](NC(=O)[C@@H]3C[C@@H]4c5cccc6[nH]cc(c56)C[C@H]4N(C)C3)(C(C)C)C(=O)N12` [Dihydro-α-ergocryptine, reference compound], the “% inhibition” value in the data set with mouse [1] (dose 20 mg/kg i.p.) is on record as 74.3%. The “Mean arterial pressure % reduction” value in data set [2] (dose = 1 mg/kg i.p.) is reported as 18.3%; in data set [2] (dose = 3 mg/kg i.p.) it was 29.0%. The ED₅₀ with isolated rat uterus (setting [4]) worked out at 0.035 µg/mL. In addition, the “Plasmatic prolactin % reduction” value in the data set on reserpinized rat (setting [5]) came out at 52.4%; in the data set with reserpinized rat (setting [6]), 66.1%. In addition, in the data set on guinea pig platelet (Dose 20 mcg/ml), the “Platelet aggregation % reduction” value was 25%.
With `CC(C)[C@@]1(NC(=O)[C@@H]2C[C@@H]3c4cccc5[nH]cc(c45)C[C@H]3N(C)C2)O[C@@]2(O)[C@@H]3CCCN3C(=O)[C@H](Cc3ccccc3)N2C1=O` [Dihydroergocristine, reference compound], the Mean score in the data set with rat (dose 10 mg/kg i.p.) is 2.37. Also, the “% inhibition” value with mouse [1] (dose 10 mg/kg i.p.) was 47.7%. Moreover, the “Mean arterial pressure % reduction” value is on record as 18.1% in data set [2] (dose = 1 mg/kg i.p.) and 32.0% in data set [2] (dose = 3 mg/kg i.p.). Besides, the ED₅₀ with isolated rat uterus (setting [4]) is 0.007 µg/mL. The “Plasmatic prolactin % reduction” value with reserpinized rat (setting [5]) amounted to 47.4%. Also, the “Platelet aggregation % reduction” value with guinea pig platelet (Dose 40 mcg/ml) is listed as 25%.
Regarding `CC[C@@H](CO)NC(=O)[C@@H]1C=C2c3cccc4[nH]cc(c34)C[C@H]2N(C)C1` [Methylergometrine, reference compound], the “Mean arterial pressure % reduction” value came to 15.7% in data set [2] (dose = 1 mg/kg i.p.) and 29.4% in data set [2] (dose = 3 mg/kg i.p.).
As for `CC[C@@H](CO)NC(=O)[C@@H]1C=C2c3cccc4c3c(cn4C)C[C@H]2N(C)C1` [Methysergid, reference compound], the ED₅₀ with rat seminal vesicle amounted to 2.48 µg/mL.
Consider `COC(=O)[C@@H]1CCCN1C(=O)[C@@H]1C=C2c3cccc4[nH]cc(c34)C[C@H]2N(C)C1.O=C(O)/C=C\C(=O)O` [P 1409, N-(D-Lysergyl)-L-proline methyl ester maleate], for which the “activity on C.N.S.” value in the data set with rat is recorded as “marked activity on C.N.S”. The molecule also showed a Mean score in the data set with rat (dose 1.25 mg/kg i.p.) of 1.00. The “% inhibition” value in the data set with mouse [1] (dose 2.5 mg/kg i.p.) is given as 69.5%. In addition, the “Mean arterial pressure % reduction” value in data set [2] (dose = 1 mg/kg i.p.) is recorded as 22.1%; in data set [2] (dose = 3 mg/kg i.p.), 27.5%. Also, in data set [2], the hypotensive activity result is “high hypotensive activity”. Moreover, the ED₅₀ in the data set on rat seminal vesicle was 1.02 µg/mL; in the data set on isolated rat uterus, 0.010 µg/mL. The antiserotonin activity entry in the data set on isolated rat uterus was “remarkable antiserotonin activity”.
`CN1C[C@H](C(=O)N2CCC[C@H]2CO)C=C2c3cccc4[nH]cc(c34)C[C@H]21.O=C(O)/C=C\C(=O)O` [P 1410]: in the data set with rat, the “activity on C.N.S.” value is reported as “marked activity on C.N.S”. The same molecule displayed a Mean score in the data set on rat (dose 10 mg/kg i.p.) of 2.62. For the same molecule, the “Mean arterial pressure % reduction” value in data set [2] (dose = 1 mg/kg i.p.) came to 17.8%. Also, in data set [2], the hypotensive activity entry is on record as “high hypotensive activity”. The same molecule showed an ED₅₀ with isolated rat uterus (setting [4]) of 0.059 µg/mL. The antiserotonin activity result in the data set with isolated rat uterus (result in words) is reported as “remarkable antiserotonin activity”. Moreover, the “Plasmatic prolactin % reduction” value in the data set with reserpinized rat (setting [5]) came to 65.7%. For the same molecule, in the data set with reserpinized rat, the antihyperprolactinemic activity entry is “interesting antihyperprolactinemic activity”.
With `CN1C[C@H](C(=O)N2CCC[C@H]2C(=O)O)C=C2c3cccc4[nH]cc(c34)C[C@H]21` [P 1411], the “% inhibition” value in the data set with mouse [1] (dose 20 mg/kg i.p.) was 80.9%. This molecule also displayed an ED₅₀ in the data set with isolated rat uterus (setting [4]) of 0.370 µg/mL.
In the case of `COC(=O)[C@@H]1C[C@@H](O)CN1C(=O)[C@@H]1C=C2c3cccc4[nH]cc(c34)C[C@H]2N(C)C1.O=C(O)/C=C\C(=O)O` [P 1413, N-(D-Lysergyl)-4-hydroxy-L-proline methyl ester maleate], in the data set on isolated rat uterus, the ED₅₀ was 0.004 µg/mL and the antiserotonin activity result is recorded as “remarkable antiserotonin activity”.
As to `CN1C[C@H](C(=O)N2C[C@H](O)C[C@H]2CO)C=C2c3cccc4[nH]cc(c34)C[C@H]21` [P 1414, N-(D-Lysergyl)-4-hydroxy-L-prolinol], the “Mean arterial pressure % reduction” value in data set [2] (dose = 1 mg/kg i.p.) stood at 17.9%; in data set [2] (dose = 3 mg/kg i.p.) it was 31.2%. Besides, in data set [2], the hypotensive activity result was “high hypotensive activity”. Also, in the data set on isolated rat uterus (setting [4]), the ED₅₀ was 0.007 µg/mL.
As for `CN1C[C@H](C(=O)N2CC(O)C[C@H]2CO)C=C2c3cccc4[nH]c(Br)c(c34)C[C@H]21` (stereo partly shown) [P 1415], the ED₅₀ with rat seminal vesicle stood at 0.95 µg/mL; in the data set with isolated rat uterus (setting [4]), 0.015 µg/mL. Also, the antiserotonin activity entry in the data set with isolated rat uterus (result in words) is given as “remarkable antiserotonin activity”.
For `CN1C[C@H](C(=O)N2CC(O)C[C@H]2CO)C=C2c3cccc4c3c(cn4C)C[C@H]21.Cl` (stereo partly shown) [P 1417], the ED₅₀ with rat seminal vesicle was 3.52 µg/mL; with isolated rat uterus (setting [4]) it was 0.001 µg/mL. For the same molecule, the antiserotonin activity entry in the data set with isolated rat uterus (result in words) is “remarkable antiserotonin activity”.
As to `CN1C[C@H](C(=O)N2CCC[C@H]2C#N)C=C2c3cccc4[nH]cc(c34)C[C@H]21.Cl` [P 1419], in the data set with rat, the “activity on C.N.S.” value is “marked activity on C.N.S”. This molecule also showed a Mean score in the data set on rat (dose 0.625 mg/kg i.p.) of 2.50. In addition, the “% inhibition” value with mouse [1] (dose 0.625 mg/kg i.p.) stood at 63.2%. Moreover, the ED₅₀ in the data set on rat seminal vesicle worked out at 0.22 µg/mL; with isolated rat uterus (setting [4]) it was 0.073 µg/mL. In addition, the “Plasmatic prolactin % reduction” value came to 68.4% in the data set with reserpinized rat (setting [5]) and 84.1% in the data set with reserpinized rat (setting [6]). Also, in the data set on reserpinized rat, the antihyperprolactinemic activity result was “interesting antihyperprolactinemic activity”. Also, the acute toxicity entry with mouse [3] was “slightly more toxic”.
On to `CN1C[C@H](C(=O)N2CCC[C@H]2C#N)C=C2c3cccc4c3c(cn4C)C[C@H]21.Cl` [P 1420], for which, in the data set on rat, the “activity on C.N.S.” value was “marked activity on C.N.S”. The molecule further came in with a Mean score in the data set with rat (dose 2.5 mg/kg i.p.) of 2.17. Also, the “% inhibition” value with mouse [1] (dose 5 mg/kg i.p.) is listed as 82.7%. Moreover, the ED₅₀ amounted to 0.50 µg/mL in the data set on rat seminal vesicle and 0.003 µg/mL in the data set on isolated rat uterus (setting [4]). Besides, the antiserotonin activity entry in the data set on isolated rat uterus (result in words) is “remarkable antiserotonin activity”. Further, the “Plasmatic prolactin % reduction” value in the data set with reserpinized rat (setting [5]) amounted to 50.1%. Besides, the antihyperprolactinemic activity result in the data set on reserpinized rat is given as “interesting antihyperprolactinemic activity”. In the data set with mouse [3], the acute toxicity result is recorded as “slightly more toxic”.
Turning to `CN1C[C@H](CN2CCC[C@H]2CO)C=C2c3cccc4[nH]cc(c34)C[C@H]21.Cl.Cl` [P 1421], the ED₅₀ was found to be 2.82 µg/mL with rat seminal vesicle and 0.011 µg/mL in the data set with isolated rat uterus (setting [4]). Further, the antiserotonin activity entry in the data set on isolated rat uterus (result in words) was “remarkable antiserotonin activity”. In addition, in the data set on guinea pig platelet (Dose 40 mcg/ml), the “Platelet aggregation % reduction” value turned out to be 25%.
On to `CN1CC(C(=O)N2CC(O)CC2CO)CC2c3cccc4[nH]cc(c34)CC21` (stereo not shown) [P 1422], for which, in the data set on mouse [1] (dose 20 mg/kg i.p.), the “% inhibition” value came to 79.8%. In addition, the “Mean arterial pressure % reduction” value was found to be 18.8% in data set [2] (dose = 1 mg/kg i.p.) and 40.8% in data set [2] (dose = 3 mg/kg i.p.). The hypotensive activity entry in data set [2] is reported as “high hypotensive activity”. The ED₅₀ in the data set with rat seminal vesicle was 2.89 µg/mL; in the data set with isolated rat uterus (setting [4]) it was 0.014 µg/mL. The antiserotonin activity result in the data set on isolated rat uterus (result in words) is on record as “remarkable antiserotonin activity”. Besides, in the data set with reserpinized rat (setting [5]), the “Plasmatic prolactin % reduction” value was found to be 77.1%. Moreover, in the data set on reserpinized rat, the antihyperprolactinemic activity entry was “interesting antihyperprolactinemic activity”.
As for `CC(C)C[C@H]1C(=O)N2CCC[C@H]2[C@]2(O)O[C@](NC(=O)[C@@H]3C=C4c5cccc6[nH]c(Br)c(c56)C[C@H]4N(C)C3)(C(C)C)C(=O)N12` [α-Bromocryptine, reference compound], the Mean score in the data set on rat (dose 10 mg/kg i.p.) turned out to be 2.25. The “% inhibition” value in the data set with mouse [1] (dose 10 mg/kg i.p.) is 78.7%. The same molecule registered an ED₅₀ with isolated rat uterus (setting [4]) of 0.470 µg/mL. Also, the entries for the “Plasmatic prolactin % reduction” value in the data set with reserpinized rat (setting [5]) and with reserpinized rat (setting [6]) were 78.2% and 80.9%, respectively. Moreover, the “Platelet aggregation % reduction” value in the data set with guinea pig platelet (Dose 80 mcg/ml) is given as 25%.

As usually defined, the % inhibition is the share of the control response that was lost under treatment. Lower therefore signals a weak effect.
